Measurements taken from US11053204B2, “Pyrimidinyloxy benzene derivatives as herbicides” (FMC Corporation, priority 2015, dated 2021).

Key:
Assay type in all cases: in vivo
[1] = test system: giant foxtail (Setaria faberii); assay: Test A preemergence, visual injury rating
In short: (§1)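 Injury scores run from 0, no effect, to 100, complete control, judged by eye against untreated plants roughly 10 days after treatment. Chemicals carried a surfactant in a non-phytotoxic solvent and went onto loam–sand soil preemergence or onto one- to two-leaf seedlings postemergence.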

[2] = test system: barnyardgrass (Echinochloa crus-galli); assay: Test A preemergence, visual injury rating
In short: as §1

[3] = test system: ragweed (common ragweed, Ambrosia elatior); assay: Test A preemergence, visual injury rating
In short: as §1

[4] = test system: pigweed (Amaranthus retroflexus); assay: Test A preemergence, visual injury rating
In short: as §1

kochia (Kochia scoparia) [5] = assay: Test A preemergence, visual injury rating
In short: as §1

[6] = test system: Italian ryegrass (Lolium multiflorum); assay: Test A preemergence, visual injury rating
In short: as §1

[7] = test system: wheat (Triticum aestivum); assay: Test A postemergence, visual injury rating
In short: as §1

[8] = test system: giant foxtail (Setaria faberii); assay: Test A postemergence, visual injury rating
In short: as §1

[9] = test system: galium (catchweed bedstraw, Galium aparine); assay: Test A postemergence, visual injury rating
In short: as §1

corn (Zea mays) = assay: Test A postemergence, visual injury rating
In short: as §1

[10] = test system: barnyardgrass (Echinochloa crus-galli); assay: Test A postemergence, visual injury rating; details: 0 is no effect, 100 is complete control; for Barnyardgrass plant response rating: 0 to 100 scale, approximately 10 days
In short: as §1

[11] = test system: blackgrass (Alopecurus myosuroides); assay: Test A postemergence, visual injury rating
In short: as §1

[12] = test system: ragweed (common ragweed, Ambrosia elatior); assay: Test A postemergence, visual injury rating
In short: as §1

[13] = test system: pigweed (Amaranthus retroflexus); assay: Test A postemergence, visual injury rating
In short: as §1

kochia (Kochia scoparia) [14] = assay: Test A postemergence, visual injury rating
In short: as §1

[15] = test system: Italian ryegrass (Lolium multiflorum); assay: Test A postemergence, visual injury rating
In short: as §1

rice (Oryza sativa) = assay: Test B flooded paddy test, plant response rating; details: 250 g ai/ha; Flood; scale of 0 to 100 where 0 is no effect and 100 is complete control; 13 to 15 days
In short: (§2)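 Ratings were visual and made relative to untreated controls after 13 to 15 greenhouse days.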

[16] = test system: ducksalad (Heteranthera limosa); assay: Test B flooded paddy test, plant response rating; details: 250 g ai/ha; Flood; scale of 0 to 100 where 0 is no effect and 100 is complete control; 13 to 15 days
In short: as §2

[17] = test system: barnyardgrass (Echinochloa crus-galli); assay: Test B flooded paddy test, plant response rating; details: 250 g ai/ha; Flood; scale of 0 to 100 where 0 is no effect and 100 is complete control; 13 to 15 days
In short: as §2

[18] = test system: sedge, umbrella (small-flower umbrella sedge, Cyperus difformis); assay: Test B flooded paddy test, plant response rating; details: 250 g ai/ha; Flood; scale of 0 to 100 where 0 is no effect and 100 is complete control; 13 to 15 days
In short: as §2

[19] = 1000 g ai/ha, 0 to 100 scale (0 no effect, 100 complete control)
[20] = 1000 g ai/ha, 0 is no effect, 100 is complete control
[21] = 31 g ai/ha, 0 to 100 scale, 0 no effect, 100 complete control
[22] = 125 g ai/ha, 0 to 100 scale (0 no effect, 100 complete control)
[23] = 31 g ai/ha, 0 to 100 scale (0 no effect, 100 complete control)
[24] = 125 g ai/ha, 0 to 100 scale, 0 is no effect, 100 is complete control, approximately 10 days
[25] = 31 g ai/ha, 0 to 100 scale, 0 is no effect, 100 is complete control, approximately 10 days
[26] = 125 g ai/ha, 0 is no effect, 100 is complete control

## CC(=O)c1c(Br)cccc1Oc1ncc(Cl)cn1 [Compound 12]
[1]; [19]
  Foxtail, Giant plant response rating: 100
[2]; [19]
  Barnyardgrass plant response rating: 80
[3]; [19]
  Ragweed plant response rating: 80
[4]; [19]
  Pigweed plant response rating: 100
Kochia (Kochia scoparia) [5]; [19]
  Kochia plant response rating: 0
[6]; [19]
  Ryegrass, Italian plant response rating: 40
[7]; [20]
  Wheat plant response rating (0 to 100 scale): 0
[8]; [20]
  Foxtail, Giant plant response rating (0 to 100 scale): 70
[9]; [20]
  Galium plant response rating (0 to 100 scale): 80
Corn (Zea mays); [20]
  Corn plant response rating (0 to 100 scale): 20
[10]; 1000 g ai/ha
  Barnyardgrass plant response rating (0 to 100 scale): 80
[11]; [20]
  Blackgrass plant response rating (0 to 100 scale): 50
[12]; [20]
  Ragweed plant response rating (0 to 100 scale): 60
[13]; [20]
  Pigweed plant response rating (0 to 100 scale): 100
Kochia (Kochia scoparia) [14]; [20]
  Kochia plant response rating (0 to 100 scale): 80
[15]; [20]
  Ryegrass, Italian plant response rating (0 to 100 scale): 50
Rice (Oryza sativa)
  Plant response rating, Rice: 0
[16]
  Plant response rating, Ducksalad: 0
[17]
  Plant response rating, Barnyardgrass: 0
[18]
  Plant response rating, Sedge, Umbrella: 0

## CCc1cccc(Oc2ncc(Cl)cn2)c1CCCCC(F)(F)F [Compound 134]
[1]; [21]
  Plant response rating, Foxtail, Giant: 10
[1]; [22]
  Plant response rating, Foxtail, Giant: 90
[2]; [21]
  Plant response rating, Barnyardgrass: 0
[2]; [22]
  Plant response rating, Barnyardgrass: 80
[3]; [21]
  Plant response rating, Ragweed: 0
[3]; [22]
  Plant response rating, Ragweed: 0
[4]; [21]
  Plant response rating, Pigweed: 0
[4]; [22]
  Plant response rating, Pigweed: 50
Kochia (Kochia scoparia) [5]; [21]
  Plant response rating, Kochia: 0
Kochia (Kochia scoparia) [5]; [22]
  Plant response rating, Kochia: 10
[6]; [21]
  Plant response rating, Ryegrass, Italian: 0
[6]; [22]
  Plant response rating, Ryegrass, Italian: 20
[7]; [23]
  Wheat plant response rating: 0
[7]; [24]
  Wheat plant response rating: 10
[8]; [23]
  Foxtail, Giant plant response rating: 10
[8]; [24]
  Foxtail, Giant plant response rating: 20
[9]; [23]
  Galium plant response rating: 10
[9]; [24]
  Galium plant response rating: 40
Corn (Zea mays); [23]
  Corn plant response rating: 10
Corn (Zea mays); [24]
  Corn plant response rating: 10
[10]; 31 g ai/ha
  Barnyardgrass plant response rating: 0
[10]; 125 g ai/ha
  Barnyardgrass plant response rating: 20
[11]; [23]
  Blackgrass plant response rating: 10
[11]; [24]
  Blackgrass plant response rating: 20
[12]; [23]
  Ragweed plant response rating: 0
[12]; [24]
  Ragweed plant response rating: 10
[13]; [23]
  Pigweed plant response rating: 40
[13]; [24]
  Pigweed plant response rating: 80
Kochia (Kochia scoparia) [14]; [23]
  Kochia plant response rating: 20
Kochia (Kochia scoparia) [14]; [24]
  Kochia plant response rating: 60
[15]; [23]
  Ryegrass, Italian plant response rating: 0
[15]; [24]
  Ryegrass, Italian plant response rating: 10
Rice (Oryza sativa)
  Plant response rating, Rice: 20
[16]
  Plant response rating, Ducksalad: 95
[17]
  Plant response rating, Barnyardgrass: 0
[18]
  Plant response rating, Sedge, Umbrella: 95

## O=C(OC/C=C/C(F)(F)F)c1c(Br)cccc1Oc1ncc(Cl)cn1 [Compound 50]
[1]; [21]
  Plant response rating, Foxtail, Giant: 50
[1]; [22]
  Foxtail, Giant plant response rating: 100
[2]; [21]
  Plant response rating, Barnyardgrass: 0
[2]; [22]
  Barnyardgrass plant response rating: 10
[3]; [21]
  Plant response rating, Ragweed: 0
[3]; [22]
  Ragweed plant response rating: 0
[4]; [21]
  Plant response rating, Pigweed: 0
[4]; [22]
  Pigweed plant response rating: 90
Kochia (Kochia scoparia) [5]; [21]
  Plant response rating, Kochia: 0
Kochia (Kochia scoparia) [5]; [22]
  Kochia plant response rating: 0
[6]; [21]
  Plant response rating, Ryegrass, Italian: 0
[6]; [22]
  Ryegrass, Italian plant response rating: 0
[7]; [25]
  Wheat plant response rating: 0
[7]; [26]
  Wheat plant response rating (0 to 100 scale): 0
[8]; [25]
  Foxtail, Giant plant response rating: 20
[8]; [26]
  Foxtail, Giant plant response rating (0 to 100 scale): 70
[9]; [25]
  Galium plant response rating: 60
[9]; [26]
  Galium plant response rating (0 to 100 scale): 90
Corn (Zea mays); [25]
  Corn plant response rating: 10
Corn (Zea mays); [26]
  Corn plant response rating (0 to 100 scale): 10
[10]; 31 g ai/ha
  Barnyardgrass plant response rating: 0
[10]; 125 g ai/ha
  Barnyardgrass plant response rating (0 to 100 scale): 20
[11]; [25]
  Blackgrass plant response rating: 0
[11]; [26]
  Blackgrass plant response rating (0 to 100 scale): 20
[12]; [25]
  Ragweed plant response rating: 0
[12]; [26]
  Ragweed plant response rating (0 to 100 scale): 0
[13]; [25]
  Pigweed plant response rating: 80
[13]; [26]
  Pigweed plant response rating (0 to 100 scale): 100
Kochia (Kochia scoparia) [14]; [25]
  Kochia plant response rating: 60
Kochia (Kochia scoparia) [14]; [26]
  Kochia plant response rating (0 to 100 scale): 90
[15]; [25]
  Ryegrass, Italian plant response rating: 0
[15]; [26]
  Ryegrass, Italian plant response rating (0 to 100 scale): 20
Rice (Oryza sativa)
  Plant response rating, Rice: 0
[16]
  Plant response rating, Ducksalad: 65
[17]
  Plant response rating, Barnyardgrass: 0
[18]
  Plant response rating, Sedge, Umbrella: 80
